Biological target: Human immunodeficiency virus type 1 protease (Human immunodeficiency virus 1, UniProt Q72874)
Assay: Compound was assayed for inhibition against HIV protease activity

| Compound | Ki |
| --- | --- |
| COc1ccc(S(=O)(=O)N(CC2CCCC2)C[C@@H](O)CN2C(=O)N(Cc3ccccc3)C[C@@H]2Cc2ccccc2)cc1 | 0.015 µM |
| COc1ccc(S(=O)(=O)N(CC2CCCC2)C[C@@H](O)CN2C(=O)COC[C@@H]2Cc2ccccc2)cc1 | 1 µM |
| COc1ccc(S(=O)(=O)N(CC2CCCC2)C[C@@H](O)CN2C(=O)[C@@H](Cc3ccccc3)C[C@@H]2Cc2ccccc2)cc1 | 0.0005 µM |
| COc1ccc(S(=O)(=O)N(CC2CCCC2)C[C@@H](O)CN2C(=O)CNC[C@@H]2Cc2ccccc2)cc1 | 3 µM |
| COc1ccc(S(=O)(=O)N(CC2CCCC2)C[C@@H](O)CN2C(=O)OC[C@@H]2Cc2ccccc2)cc1 | 1.5 µM |
| COc1ccc(S(=O)(=O)N(CC2CCCC2)C[C@@H](O)CN2C(=O)C3(CCCCC3)NC[C@@H]2Cc2ccccc2)cc1 | 0.017 µM |

Source: ChEMBL document CHEMBL1130721, “Design and synthesis of novel conformationally restricted HIV protease inhibitors” (Bioorg Med Chem Lett, 1998)
